According to US10294202B2, “Pyrrolidinones as herbicides” (FMC Corporation, priority 2013, dated 2019):

Assays:
[1] = system: giant foxtail; assay: Test A pre-/postemergence herbicide test; assay type: in vivo, Setaria faberii; details: for Foxtail, Giant plant response rating: Preemergence, visual rating on 0 to 100 scale (0 no effect, 100 complete control)
How it was run: (§1)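 Visual injury ratings, 0 = no effect, 100 = complete control, taken ~10 days after treatment against untreated greenhouse controls. Preemergence: directed soil spray onto seeded loam/sand pots. Postemergence: spray onto plants at one- to two-leaf stage, 2–10 cm tall.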

[2] = system: barnyardgrass; assay: Test C pre-/postemergence herbicide test; assay type: in vivo, Echinochloa crus-galli; details: Preemergence; for Plant response rating (scale of 0 to 100; 0 is no effect, 100 is complete control), Barnyardgrass: 250 g ai/ha
How it was run: (§2)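 Pre- and postemergence greenhouse screen. Preemergence treatment went onto freshly planted seeds in loam–sand soil; postemergence treatment went onto plants 2 to 18 cm tall at the 1- to 4-leaf stage in sphagnum peat/vermiculite medium. Scoring at 13 to 15 days used a 0–100 control scale.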

[3] = system: sedge, umbrella; assay: Test B flooded paddy test; assay type: in vivo, Cyperus difformis; details: Flood, scale of 0 to 100 where 0 is no effect and 100 is complete control
How it was run: (§3)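 Scored visually 0–100 (0 no effect, 100 complete control) versus controls after 13 to 15 greenhouse days. Treatment: compound added to paddy water kept 3 cm above soil, on 2-leaf-stage plants.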

[4] = system: barnyardgrass; assay: Test B flooded paddy test; assay type: in vivo, Echinochloa crus-galli; details: Flood, scale of 0 to 100 where 0 is no effect and 100 is complete control
How it was run: as §3

[5] = system: soybean; assay: Test C pre-/postemergence herbicide test; assay type: in vivo, Glycine max; details: Preemergence; for Plant response rating (scale of 0 to 100), Soybean: 250 g ai/ha
How it was run: as §2

[6] = system: corn; assay: Test A pre-/postemergence herbicide test; assay type: in vivo, Zea mays; details: for Corn plant response rating: Preemergence, visual rating on 0 to 100 scale (0 no effect, 100 complete control)
How it was run: as §1

[7] = system: rice; assay: Test B flooded paddy test; assay type: in vivo, Oryza sativa; details: Flood, scale of 0 to 100 where 0 is no effect and 100 is complete control
How it was run: as §3

[8] = system: morningglory; assay: Test C pre-/postemergence herbicide test; assay type: in vivo, Ipomoea coccinea; details: Preemergence; for Plant response rating (scale of 0 to 100), Morningglory: 250 g ai/ha
How it was run: as §2

[9] = system: ducksalad; assay: Test B flooded paddy test; assay type: in vivo, Heteranthera limosa; details: Flood, scale of 0 to 100 where 0 is no effect and 100 is complete control
How it was run: as §3

[10] = system: crabgrass, large; assay: Test C pre-/postemergence herbicide test; assay type: in vivo, Digitaria sanguinalis; details: Preemergence
How it was run: as §2

[11] = system: blackgrass; assay: Test C pre-/postemergence herbicide test; assay type: in vivo, Alopecurus myosuroides; details: Preemergence
How it was run: as §2

[12] = system: ragweed; assay: Test C pre-/postemergence herbicide test; assay type: in vivo, Ambrosia elatior; details: Preemergence
How it was run: as §2

[13] = system: barnyardgrass; assay: Test A pre-/postemergence herbicide test; assay type: in vivo, Echinochloa crus-galli; details: for Barnyardgrass plant response rating: Preemergence, visual rating on 0 to 100 scale (0 no effect, 100 complete control)
How it was run: as §1

[14] = Postemergence, 1000 g ai/ha, 0 to 100 scale (0 no effect, 100 complete control)
[15] = 31 g ai/ha, scale 0 to 100, 0 is no effect and 100 is complete control
[16] = 62 g ai/ha, scale 0 to 100 (0 no effect, 100 complete control)
[17] = 125 g ai/ha, scale 0 to 100 (0 no effect, 100 complete control)
[18] = Postemergence, 125 g ai/ha, 0 to 100 scale, 0 no effect, 100 complete control
[19] = Postemergence, 500 g ai/ha, 0 to 100 scale (0 no effect, 100 complete control)
[20] = preemergence, 500 g ai/ha, 0 to 100 scale
[21] = preemergence, 500 g ai/ha, 0 to 100 scale (0 no effect, 100 complete control)
[22] = 31 g ai/ha, scale 0 to 100 (0 no effect, 100 complete control)
[23] = 250 g ai/ha, scale 0 to 100 (0 no effect, 100 complete control)

SMILES: O=C(Nc1ccccc1F)C1C(=S)NCC1c1cccc(C(F)(F)F)c1 (centres unmarked) [Compound 274]
- Plant response rating, Foxtail, Giant [1, 14]: 90
- Plant response rating, Foxtail, Giant ([1]; preemergence, 1000 g ai/ha, 0 to 100 scale): 90
- Barnyardgrass plant response rating [2, 15]: 55
- Barnyardgrass plant response rating [2, 16]: 65
- Plant response rating, Barnyardgrass [2, 17]: 85
- Plant response rating (scale of 0 to 100; 0 is no effect, 100 is complete control), Barnyardgrass [2]: 90
- Plant response rating, Sedge, Umbrella ([3]; 500 g ai/ha): 0
- Plant response rating, Barnyardgrass ([4]; 500 g ai/ha): 0
- Soybean plant response rating [5, 15]: 0
- Soybean plant response rating [5, 16]: 0
- Plant response rating, Soybean [5, 17]: 5
- Plant response rating (scale of 0 to 100), Soybean [5]: 0
- Plant response rating, Corn [6, 14]: 70
- Plant response rating, Rice ([7]; 500 g ai/ha): 0
- Morningglory plant response rating [8, 15]: 0
- Morningglory plant response rating [8, 16]: 0
- Plant response rating, Morningglory [8, 17]: 0
- Plant response rating (scale of 0 to 100), Morningglory [8]: 0
- Plant response rating, Ducksalad ([9]; 500 g ai/ha): 35
- Crabgrass, Large plant response rating [10, 15]: 85
- Crabgrass, Large plant response rating [10, 16]: 90
- Plant response rating, Crabgrass, Large [10, 17]: 98
- Plant response rating (scale of 0 to 100), Crabgrass, Large ([10]; 250 g ai/ha): 100
- Blackgrass plant response rating [11, 15]: 0
- Blackgrass plant response rating [11, 16]: 70
- Plant response rating, Blackgrass [11, 17]: 75
- Plant response rating (scale of 0 to 100), Blackgrass ([11]; 250 g ai/ha): 90
- Ragweed plant response rating [12, 16]: 0
- Plant response rating, Ragweed [12, 17]: 0
- Plant response rating (scale of 0 to 100), Ragweed ([12]; 250 g ai/ha): 0
- Plant response rating, Barnyardgrass [13, 14]: 90
- Plant response rating, Barnyardgrass ([13]; preemergence, 1000 g ai/ha, 0 to 100 scale (0 no effect, 100 complete control)): 90

SMILES: O=C1NCC(c2ccc(F)c(C(F)(F)F)c2)C1C(=O)Nc1ccccc1C(F)(F)F (racemic) [Compound 78]
- Plant response rating, Foxtail, Giant [1, 18]: 80
- Plant response rating, Foxtail, Giant [1, 19]: 80
- Foxtail, Giant plant response rating ([1]; 125 g ai/ha): 90
- Plant response rating, Foxtail, Giant [1, 20]: 90
- Barnyardgrass plant response rating [2, 15]: 60
- Plant response rating, Barnyardgrass ([2]; 62 g ai/ha, scale 0 to 100): 75
- Plant response rating, Barnyardgrass [2, 17]: 85
- Plant response rating (scale of 0 to 100; 0 is no effect, 100 is complete control), Barnyardgrass [2]: 95
- Plant response rating, Sedge, Umbrella ([3]; 250 g ai/ha): 0
- Plant response rating, Barnyardgrass ([4]; 250 g ai/ha): 0
- Soybean plant response rating [5, 15]: 0
- Plant response rating, Soybean ([5]; 62 g ai/ha, scale 0 to 100): 0
- Plant response rating, Soybean [5, 17]: 0
- Plant response rating (scale of 0 to 100), Soybean [5]: 0
- Plant response rating, Corn [6, 18]: 20
- Plant response rating, Corn [6, 19]: 50
- Corn plant response rating ([6]; 125 g ai/ha): 0
- Plant response rating, Corn [6, 20]: 0
- Plant response rating, Rice ([7]; 250 g ai/ha): 0
- Morningglory plant response rating [8, 15]: 0
- Plant response rating, Morningglory ([8]; 62 g ai/ha, scale 0 to 100): 0
- Plant response rating, Morningglory [8, 17]: 0
- Plant response rating (scale of 0 to 100), Morningglory [8]: 0
- Plant response rating, Ducksalad ([9]; 250 g ai/ha): 85
- Crabgrass, Large plant response rating [10, 15]: 95
- Plant response rating, Crabgrass, Large ([10]; 62 g ai/ha, scale 0 to 100): 98
- Plant response rating, Crabgrass, Large [10, 17]: 98
- Plant response rating (scale of 0 to 100), Crabgrass, Large ([10]; 250 g ai/ha): 98
- Blackgrass plant response rating [11, 15]: 30
- Plant response rating, Blackgrass ([11]; 62 g ai/ha, scale 0 to 100): 75
- Plant response rating, Blackgrass [11, 17]: 75
- Plant response rating (scale of 0 to 100), Blackgrass ([11]; 250 g ai/ha): 85
- Plant response rating, Barnyardgrass [13, 18]: 50
- Plant response rating, Barnyardgrass [13, 19]: 70
- Barnyardgrass plant response rating ([13]; 125 g ai/ha): 80
- Plant response rating, Barnyardgrass [13, 21]: 90

SMILES: O=C1NCC(c2ccc3c(c2)OC(F)(F)O3)C1C(=O)Nc1cccc(F)c1F (centres unmarked) [Compound 62]
- Plant response rating, Foxtail, Giant [1, 18]: 80
- Plant response rating, Foxtail, Giant [1, 19]: 80
- Foxtail, Giant plant response rating ([1]; 125 g ai/ha): 80
- Plant response rating, Foxtail, Giant [1, 20]: 90
- Plant response rating, Sedge, Umbrella ([3]; 250 g ai/ha): 80
- Plant response rating, Barnyardgrass ([4]; 250 g ai/ha): 20
- Plant response rating, Soybean ([5]; 62 g ai/ha, scale 0 to 100): 30
- Plant response rating, Soybean [5, 17]: 35
- Plant response rating, Corn [6, 18]: 40
- Plant response rating, Corn [6, 19]: 70
- Corn plant response rating ([6]; 125 g ai/ha): 0
- Plant response rating, Corn [6, 20]: 0
- Plant response rating, Rice ([7]; 250 g ai/ha): 0
- Plant response rating, Morningglory ([8]; 62 g ai/ha, scale 0 to 100): 10
- Plant response rating, Morningglory [8, 17]: 15
- Plant response rating, Ducksalad ([9]; 250 g ai/ha): 75
- Crabgrass, Large plant response rating [10, 22]: 85
- Plant response rating, Crabgrass, Large ([10]; 62 g ai/ha, scale 0 to 100): 90
- Plant response rating, Crabgrass, Large [10, 17]: 95
- Plant response rating, Crabgrass, Large [10, 23]: 98
- Blackgrass plant response rating [11, 22]: 0
- Plant response rating, Blackgrass ([11]; 62 g ai/ha, scale 0 to 100): 45
- Plant response rating, Blackgrass [11, 17]: 80
- Plant response rating, Blackgrass [11, 23]: 80
- Plant response rating, Ragweed ([12]; 62 g ai/ha, scale 0 to 100): 15
- Plant response rating, Ragweed [12, 17]: 45
- Plant response rating, Barnyardgrass [13, 18]: 70
- Plant response rating, Barnyardgrass [13, 19]: 80
- Barnyardgrass plant response rating ([13]; 125 g ai/ha): 80
- Plant response rating, Barnyardgrass [13, 21]: 80

SMILES: O=C1NCC(c2ccc(Cl)c(F)c2)C1C(=O)Nc1ccccc1F (centres unmarked) [Compound 53]
- Plant response rating, Foxtail, Giant [1, 18]: 30
- Plant response rating, Foxtail, Giant [1, 19]: 80
- Foxtail, Giant plant response rating ([1]; 125 g ai/ha): 90
- Plant response rating, Foxtail, Giant [1, 20]: 90
- Plant response rating, Sedge, Umbrella ([3]; 250 g ai/ha): 20
- Plant response rating, Barnyardgrass ([4]; 250 g ai/ha): 0
- Plant response rating, Soybean ([5]; 62 g ai/ha, scale 0 to 100): 15
- Plant response rating, Soybean [5, 17]: 15
- Plant response rating, Corn [6, 18]: 0
- Plant response rating, Corn [6, 19]: 0
- Corn plant response rating ([6]; 125 g ai/ha): 0
- Plant response rating, Corn [6, 20]: 0
- Plant response rating, Rice ([7]; 250 g ai/ha): 0
- Plant response rating, Morningglory ([8]; 62 g ai/ha, scale 0 to 100): 0
- Plant response rating, Morningglory [8, 17]: 0
- Plant response rating, Ducksalad ([9]; 250 g ai/ha): 100
- Crabgrass, Large plant response rating [10, 22]: 80
- Plant response rating, Crabgrass, Large ([10]; 62 g ai/ha, scale 0 to 100): 85
- Plant response rating, Crabgrass, Large [10, 17]: 90
- Plant response rating, Crabgrass, Large [10, 23]: 90
- Blackgrass plant response rating [11, 22]: 0
- Plant response rating, Blackgrass ([11]; 62 g ai/ha, scale 0 to 100): 0
- Plant response rating, Blackgrass [11, 17]: 0
- Plant response rating, Blackgrass [11, 23]: 0
- Plant response rating, Ragweed ([12]; 62 g ai/ha, scale 0 to 100): 10
- Plant response rating, Ragweed [12, 17]: 10
- Plant response rating, Barnyardgrass [13, 18]: 30
- Plant response rating, Barnyardgrass [13, 19]: 80
- Barnyardgrass plant response rating ([13]; 125 g ai/ha): 80
- Plant response rating, Barnyardgrass [13, 21]: 90
